Source: ChEMBL document CHEMBL1128084, “A general method for synthesis of ether phospholipids with -linolenic acid and their properties” (Bioorg Med Chem Lett, 1995)

Assay: Inhibiting aggregation of rabbit platelet induced by platelet-activating factor
Settings: Oryctolagus cuniculus; concentration not given here

- inhibition: 4.3%
Compound: CC/C=C/C/C=C/C/C=C/CCCCCCCCC(=O)O[C@@H](COCCCCCCCCCCCCCCCC)COP(=O)([O-])OCC[N+](C)(C)C
